The values that follow come from patent publication US10130715B2 (priority 2013, dated 2018).

Where two headings read alike, the source gives them in different places.

The nature of data set [1]: Pilot study: plasma β-alanine and net retention after oral ingestion (GC-MS). The data set is classed as in vivo, human. How it is done: Each subject completed three trials, labeled “A”, “B”, and “C” using a Latin square design (i.e. subject 1 completed trials in ABC order, subject 2 completed trials in BCA order, and subject 3 completed trials in CAB order). […] Blood samples were drawn into lithium heparin tubes at baseline (time 0), 30 min, 1 hr, 2 hr, 3 hr, 4 hr post ingestion, spun in a clinical centrifuge for 15 minutes, and processed to obtain plasma.

Another data set concerns individuals. Conditions: human, in vivo. From the text:
A minimum clinically significant difference in VAS rating for pain or paraesthesia appears to range from 13 mm to 16 mm with a 95% confidence interval. (See e.g., Gallagher, et al., Am J Emerg Med. 2002; 20(4):287-90; Bouhassira, et al., Pain. 2004; 108(3):248-57; Poliakov, et al. Eur J Pain. 2011 November; 15(10):1015-22; and Eisenberg, et al. Eur J Pain. 1998; 2(4):321-327). VAS rating instruments have also been deemed specific and sensitive to detect the effects of an intervention on paraesthesia and neuropathic pain.

For data set [2] the following is noted: cited from earlier work.

For the compound `NCCC(=O)O` [β-alanine, 3-Aminopropanoic acid], the “Net Loss (uMol), Mean (SD)” value in data set [1] (Mean (SD) of 3 subjects) was 9174.5 (862.96) uMol. The “Net Loss” value in data set [1] (Subject 1, 0-4 hr collection) stood at 10167.5 µmol; in data set [1] (Subject 2, 0-4 hr collection) it was 8606.6 µmol; in data set [1] (Subject 3, 0-4 hr collection), 8749.3 µmol. The “anchored 100 mm VAS scores for paraesthesia” value in the data set with individuals is reported as 60 mm-90 mm. Moreover, the severity of paraesthesia entry was “moderate-to-severe” in data set [2] (oral doses of 40 mg/kg or higher); “severe” in data set [2] (oral doses of 40 mg/kg); “relatively mild” in data set [2] (oral, 10 mg/kg).
